# Source: PMC6628624 (Toxins, 2019)
# Like-named read-outs stand apart in the source and are kept apart here.
# Experiments:
# [1] = in vivo
# [2] = tested on: Caco-2 cells; details: human
# [3] = in vivo; details: male, Landrace × Large White × Duroc, pig, 0.1 mg/kg
# [4] = in vitro; details: human, Caco-2, Papp (apparent permeability coefficient)
# [5] = tested on: mice; details: mouse, in vivo, cited from earlier work
# [6] = rat, in vivo, sc; cited from earlier work
# [7] = tested on: rats; details: rat, in vivo; cited from earlier work
# [8] = pig, in vivo; cited from earlier work
# [9] = tested on: Caco-2 cells; details: cited from earlier work
# [10] = monkey, in vivo; cited from earlier work
# [11] = rat, in vivo; cited from earlier work
# [12] = male, Landrace × Large White × Duroc, swine, 0.1 mg/kg
# [13] = male, Landrace × Large White × Duroc, swine, po, 0.1 mg/kg
compound,measurement,setting,value
"COc1cc(=O)oc(/C=C/C=C/C=C/C(C)=C/[C@]2(C)O[C@H](C)[C@](C)(O)[C@H]2O)c1C [CTVD, Citreoviridin]",adverse clinical signs,[1],None
same,plasma CTVD concentration until 3 h after PO,"[1]; po, 0.1 mg/kg",almost no increase
same,time to eliminate CTVD in plasma,"[1]; male, Landrace × Large White × Duroc, swine",more than 40 h
same,F (bioavailability calculated using mean AUC∞ after PO and IV),[1]; [12],116.4%
same,Ft (bioavailability calculated using mean AUCt after PO and IV),[1]; [12],79.3%
same,Vd (apparent volume of distribution),"[1]; male, Landrace × Large White × Duroc, swine, iv, 0.1 mg/kg",1.5 ± 0.2 L
same,extrapolation estimate of AUC (from 48 h to infinity) relative to AUCt,"[1]; male, Landrace × Large White × Duroc, swine, po",68 % of AUCt
same,Kel (rate constant),[1]; [13],0.4 ± 0.2 ×10^−1 h^−1
same,Vd/F (apparent volume of distribution),[1]; [13],1.7 ± 0.3 L
same,Papp (apparent permeability coefficient),[2],42.6 ± 17.7 ×10^−6 cm/s
same,AUC(0-inf),[3]; iv,1510 ± 332 ng·h/mL
same,AUC(0-t),[3]; iv,1320 ± 224 ng·h/mL
same,MRT,[3]; iv,14.6 ± 1.2 h
same,half-life,[3]; iv,16.2 ± 4.3 h
same,AUC(0-inf),[3]; po,1760 ± 814 ng·h/mL
same,AUC(0-t),[3]; po,1050 ± 181 ng·h/mL
same,Cmax,[3]; po,38.2 ± 6.7 ng/mL
same,MRT,[3]; po,19.6 ± 4 h
same,Tmax,[3]; po,15 ± 6 h
same,half-life,[3]; po,21.4 ± 12.7 h
same,Papp,[4],52.2 ± 28.3 ×10⁻⁶ cm/s
same,LD50 (lethal dose 50%),[5]; ip,7.5 mg/kg
same,LD50 (lethal dose 50%),[5]; sc,3.6 to 11.8 mg/kg
same,CTVD still detected in the liver after 52 h,[6],< 1 % of the total administered dose
same,persistence of CTVD in organs at 52 h,[6],"remained in the liver, kidney, and heart"
same,time at which the concentration of CTVD was highest in the liver,[6],8 h
same,outcome of chronic low-dose administration,[7],rats died
CC1=C[C@H]2O[C@@H]3[C@H](O)C[C@](C)([C@@]2(CO)[C@H](O)C1=O)[C@]31CO1 [deoxynivalenol],bioavailability,[8],48–109.8%
same,elimination half-life,[8],7.2 to 15.2 h
same,Papp,[9]; Caco-2,0.19 ± 0.02 × 10^−6 cm/min
CCCC[C@@H](C)[C@@H](OC(=O)C[C@@H](CC(=O)O)C(=O)O)[C@H](C[C@@H](C)C[C@H](O)CCCC[C@@H](O)C[C@H](O)[C@H](C)N)OC(=O)C[C@@H](CC(=O)O)C(=O)O [fumonisin B1],elimination half-life,[8],3.03 h
C[C@@H]1Cc2c(Cl)cc(C(=O)N[C@@H](Cc3ccccc3)C(=O)O)c(O)c2C(=O)O1 [ochratoxin A],bioavailability,[8],65.7%
same,elimination half-life,[8],84.5 h
same,elimination half-life,[10],840 h
C[C@H]1CCCC(=O)CCC/C=C/c2cc(O)cc(O)c2C(=O)O1 [zearalenone],bioavailability,[8],80–85%
same,Papp,[9]; Caco-2,10.4 ± 4.7 × 10^−6 cm/s
aflatoxin B1,elimination half-life,[11],91.8 h
aflatoxin M1,Papp,[9],105.10 ± 7.98 ×10^−6 cm/s
